Laboratory results as given in patent US7586003B2, “Derivatives of seleno-amino acids” (Zinpro Corporation, priority 2005, dated 2009).

How the values were obtained:
[1] = Stability compared with parent seleno-amino acid
Solubility in water = conditions: in words; partly relative to parent seleno-amino acid
glutathione peroxidase = assay: Whole-blood glutathione peroxidase activity of lactating cows fed selenium premixes; type: in vivo
Description: (§1) Three premixes were prepared for use in a field study in lactating cows. One of the premixes contained no additional source of selenium and was intended to serve as the placebo. The second contained sodium selenite and the third contained N-Succinyl L-Selenomethionine (Compound 2). Each of the premixes was prepared by mixing an amount of the selenium source with sufficient amount of finely ground sugar to contain 250 ppm of selenium. Each premix was color identified by the incorporation of a solution of a food color during formulation and given a letter designation by random selection. […] This was done to avoid any possible biases in the interpretation of the results of the feeding experiments. Thirty lactating cows were fed one of the three premixes as a daily topdress. The effect of these selenium sources on tissue selenium content and whole blood glutathione peroxidase activity were determined. All cows were fed a total mixed diet devoid of added selenium for an initial 8-week depletion period. Daily rations were topdressed with an amount of the premix to provide 7.5 mg selenium. Treatments were continued for 8-week followed by a 4-week depletion period. Milk samples were collected on one day per week beginning the week prior to the first depletion period (Week 0) and continuing through the 20 weeks of the experiment. The selenium content of the milk serum obtained after the samples were defatted was determined. Blood samples were collected on one day per week beginning the week prior to the first depletion period (Week 0) and at four week intervals throughout the experiment (Weeks 8, 12, 16 and 20 in Table 1). The blood samples were draw into trace-element free vacutainer tubes containing an anticoagulant. Aliquots of whole blood were analyzed for selenium and glutathione peroxidase activity. Other aliquots of blood were centrifuged to harvest plasma and the selenium content of the plasma samples was determined. Liver samples were obtained by biopsy on one day per week beginning the week prior to the first depletion period (Week 0) and at four week intervals throughout the experiment (Weeks 8, 12, 16 and 20 in Table 1). Liver samples were analyzed for selenium content. […] The dramatic changes in the selenium concentrations in response to changes in dietary intake of selenium indicate that these tissues are sensitive indicators of the dietary selenium status of the lactating cows. […] The changes in the selenium concentration and glutathione peroxidase activity (GPX) in whole blood in response to changing dietary selenium intake were less sensitive than those in milk serum, plasma and liver.

[2] = Tissue selenium content of lactating cows fed selenium premixes (milk serum, plasma, liver, whole blood); type: in vivo; conditions: for Liver Se / Milk Serum Se / Plasma Se / Whole Blood Se: female, cow
Description: as §1

[3] = Wk 0, before first depletion period
[4] = Wk 8, end of 8-week depletion, before treatment
[5] = Wk 12, 4 weeks of topdress providing 7.5 mg selenium daily
[6] = Wk 16, 8 weeks of topdress providing 7.5 mg selenium daily
[7] = Wk 20, end of 4-week second depletion

## C[Se]CC[C@H](N)C(=O)OC(C)C.Cl [Compound 1, L-Selenomethionine Isopropyl Ester Hydrochloride]
[1]; in the solid state and in solution
  Stability relative to L-selenomethionine: significantly more stable than L-selenomethionine
Solubility in water
  Solubility in water: readily soluble in water

## C[Se]CC[C@H](NC(=O)CCC(=O)O)C(=O)O [Compound 2, (S)-4-(1-carboxy-3-(methylselanyl)propylamino)-4-oxobutanoic Acid]
Glutathione peroxidase; [3]
  Whole Blood GPX: 18.2 EU/ml
Glutathione peroxidase; [4]
  Whole Blood GPX: 19.2 EU/ml
Glutathione peroxidase; [5]
  Whole Blood GPX: 18.7 EU/ml
Glutathione peroxidase; [6]
  Whole Blood GPX: 17.5 EU/ml
Glutathione peroxidase; [7]
  Whole Blood GPX: 19.8 EU/ml
[2]; in vivo, 0 week of experiment
  Liver Se: 1151 ng/g dry wt.
  Milk Serum Se: 14.96 ng/mL
  Plasma Se: 63.5 ng/mL
  Whole Blood Se: 144.0 ng/mL
[2]; in vivo, 8 week of experiment
  Liver Se: 690 ng/g dry wt.
  Milk Serum Se: 4.30 ng/mL
  Plasma Se: 43.6 ng/mL
  Whole Blood Se: 136.3 ng/mL
[2]; in vivo, 20 week of experiment
  Liver Se: 1003 ng/g dry wt.
  Milk Serum Se: 10.91 ng/mL
  Plasma Se: 52.2 ng/mL
  Whole Blood Se: 112.1 ng/mL
[2]; in vivo
  Bioavailability as source of dietary selenium: more bioavailable source of dietary selenium than sodium selenite

## C[Se]CC[C@H](NC(N)=O)C(=O)O [Compound 3, N-Carbamoyl L-Selenomethionine]
[1]; solution in water
  Stability of the solution relative to parent seleno-amino acid: appears to be more stable than the parent seleno-amino acid
Solubility in water
  Solubility in water: more soluble in water

## O=[Se](O)O [Sodium Selenite, reference compound]
Glutathione peroxidase; [3]
  Whole Blood GPX: 17.3 EU/ml
Glutathione peroxidase; [4]
  Whole Blood GPX: 17.9 EU/ml
Glutathione peroxidase; [5]
  Whole Blood GPX: 17.6 EU/ml
Glutathione peroxidase; [6]
  Whole Blood GPX: 16.1 EU/ml
Glutathione peroxidase; [7]
  Whole Blood GPX: 17.9 EU/ml
[2]; Wk12 & Wk 16, 7.5 mg selenium daily
  Change of selenium concentrations in milk serum, plasma and liver on supplemented diet: progressive and significant increases

## C[Se]CC[C@@H]1NC(=O)NC1=O [Compound 4, (S)-5-(2-(methylselanyl)ethyl)midazolidine-2,4-dione]
[1]
  Stability relative to parent seleno-amino acid: appears to be more stable than the parent seleno-amino acid
Solubility in water
  Solubility in water: less soluble
